Data set [1] in a line: UV-Visible and fluorescence spectrometry. In kind it is physicochemical. As for the experimental part:
(§1) All of the new prepared phenothiazine-pyridine compounds are deep blue solid, the basic physiochemical properties are measured by UV-Visible and fluorescence spectrometry. […] The maximum absorption is about 650 nm in ethanol, and they are varied based on the compound structure. The fluorescence emission is about 680 nm when excited at 610 nm. All of these compounds have relatively high quantum yield, they are promising diagnostic and imaging agents. The lipophilicity is determined by the partition coefficient (log P), which can be obtained by measuring the UV-Vis absorption of the compound in phosphate buffer saline (PBS) before and after the partition equilibrium between n-octanol and PBS solution, and then calculated following the equation of: Log p=Log [(Abefore/Aafter)−1]. Wherein Abefore and Aafter are the absorption values in PBS solution before and after partition.

Data set [2] is described as follows: Partition coefficient (log P) between n-octanol and PBS by UV-Vis absorption. In kind it is physicochemical. The procedure:
as §1

The subject of data set [3] is normal fibroblast WI38 cells. The data set is described as follows: Dark toxicity, MTT assay. In kind it is cell-based. Conditions: Homo sapiens, WI-38; WI38 cells, 24 h under dark, MTT; read-out: IC50 dark toxicity. As for the experimental part: (§2) Cell lines and culture conditions: A549, HT29, MCF-7, MDA-MB-231 cell lines were maintained in RPMI1640 supplemented with fetal bovine serum (10%) and penicillin-streptomycin solution (1%), and WI38 cells were maintained in DMEM supplemented with fetal bovine serum (10%) and penicillin-streptomycin solution (1%). Approximately 1×10^4 (for A549, HT29, MCF-7, MDA-MB-231) or 1.5×10^4 (for WI38) cells per well were seeded in 96-well plate and incubated overnight light at 37° C. in a humidified atmosphere with 5% CO2.
(§3) Dark toxicity: Cells were incubated with different concentrations of photosensitive drug for 24 h in dark, and the cell viabilities were determined by MTT assay
The IC50 values (50% inhibitory concentration) of the prepared phenothiazine-pyridine compounds 8, 14, 15, 16, 17, 18, 19, 20, 21, 22, 23, and 24 to normal fibroblast cell line WI38 were measured by MTT assay.
On the technique in general: Formazan colour is commonly taken as a measure of viable cells.

The subject of data set [4] is A549 cell line. The data set is described as follows: Photocytotoxicity (PDT), MTT assay. Conditions: Homo sapiens, light or radiation study; A549; 1 h incubation, 630 nm LED light 30 s, 3.2 J/cm^2, 24 h, MTT; read-out: IC50 PDT. In kind it is cell-based. As for the experimental part: as §2
(§4) Photocytotoxicity: Cells were incubated with different concentrations of photosensitive drug for 1 h in the dark, then the medium in the well was sucked by a syringe, and washed by PBS. Then a solution of new medium was added, and illuminated by light. After irradiation, the cells were incubated under dark at 37° C. for another 24 h, and the cell viabilities were determined by MTT assay.

Data set [5] has as its system HT29 cell line. Briefly: Photocytotoxicity (PDT), MTT assay. In kind it is cell-based. Conditions: Homo sapiens, HT-29, light or radiation study; HT29; 1 h incubation, 630 nm LED light 30 s, 3.2 J/cm^2, 24 h, MTT; read-out: IC50 PDT. The procedure:
as §2, §4

In data set [6] the test system is MCF7 cell line. Briefly: Photocytotoxicity (PDT), MTT assay. In kind it is cell-based. Conditions: Homo sapiens, light or radiation study; MCF7; 1 h incubation, 630 nm LED light 30 s, 3.2 J/cm^2, 24 h, MTT; read-out: IC50 PDT. The procedure:
as §2, §4

Data set [7] deals with A549 cell line. The data set is described as follows: Dark toxicity, MTT assay. Conditions: Homo sapiens; A549; 24 h under dark, MTT; read-out: IC50 DK. In kind it is cell-based. As for the experimental part:
as §2, §3

The test system of data set [8] is HT29 cell line. Briefly: Dark toxicity, MTT assay. In kind it is cell-based. Conditions: Homo sapiens, HT-29; HT29; 24 h under dark, MTT; read-out: IC50 DK. The procedure:
as §2, §3

The subject of data set [9] is MCF7 cell line. Briefly: Dark toxicity, MTT assay. In kind it is cell-based. Conditions: Homo sapiens; MCF7; 24 h under dark, MTT; read-out: IC50 DK. The procedure: as §2, §3
For a further data set, the system named is MDA-MB-231 cells. Briefly: Light dosage dependent photocytotoxicity, 635 Laser. In kind it is cell-based. Conditions: MDA-MB-231, 635 Laser. The procedure:
as §2, §4
[…] After incubation for a further 24 h, 3-(4,5-Dimethylthiazol-2-yl)-2,5-diphenyltetrazolium bromide (MTT) were added and the cells were incubated for another 4 h. The medium were sucked by syringe, and dimethyl sulfoxide (DMSO) was added to fully dissolve the crystals, the optical density (OD) values were measured with a microplate reader, and the data were analyzed by GraphPad Prism 6.

For data set [10], the system named is S. aureus. The data set is described as follows: Dark toxicity of photosensitizers on bacteria, CFU count. Conditions: absence of light, 6 h. In kind it is cell-based, Staphylococcus aureus. As for the experimental part:
(§5) Bacterial growth and culture: Gram-positive S. aureus or Gram-negative E. coli were grown on trypticase soy agar (TSA) for 24 h, then a colony was transferred into tryptica soy broth (TSB) and grown at 37° C. overnight at a 200 rpm speeds of shaking-up using a shaker incubator. The nutrient medium was centrifuged for 5 min at 8000 rpm and diluted by sterile 0.85% saline (pH 7.5) to concentrations of 10^8 CFU/ml, which was used for further incubation with photosensitizers in the following experiments.
(§6) Dark toxicities of the photosensitizers on bacteria: Bacterial suspensions were incubated with photosensitizers at various concentrations at 37° C. in the dark for 6 h. After that, 100 uL of cell suspension were spread on the TSA in 10-fold serial dilutions. Colony forming unit (CFU) was counted after incubation for 24 h at 37° C.

Data set [11] concerns E. coli. Described as above. Conditions: absence of light, 6 h. In kind it is cell-based, Escherichia coli. The procedure:
as §5, §6

Data set [12] deals with S. aureus. The data set is described as follows: Photodynamic inactivation of bacteria, CFU count. In kind it is cell-based, Staphylococcus aureus. The procedure:
as §5
(§7) Photodynamic inactivation of bacteria: Bacterial suspensions (2×10^8 CFU/ml) were co-incubated with different concentrations of the photosensitizer for 10 min at 37° C., and then centrifuged, washed once with normal saline and resuspended in PBS saline. Aliquots of this suspension were placed into 24-well flat bottom plate and illuminated with laser light. After illumination, 100 uL of cell suspension were spread on the TSA in 10-fold serial dilutions and colony forming unit (CFU) was counted after incubation for 24 h at 37° C.

Data set [13] deals with E. coli. Briefly: Photodynamic inactivation of bacteria, CFU count. In kind it is cell-based, Escherichia coli. As for the experimental part: as §5, §7
The next data set concerns HT29 cells. The data set is described as follows: Intracellular ROS generation, DCFH-DA probe, flow cytometry. In kind it is cell-based. Conditions: HT29, 0.5 uM, light irradiation; order 14≈23>8>18>15>24>>16>20>17≈19≈22>21>>MB. The source says:
In order to further mimic the biological environment, we measured the intracellular reactive oxygen species (ROS) generation efficiency of these phenothiazine-pyridine compounds by flow cytometry. We employed HT29 cell line as cell model, and 2,7-dichlorofluorescin diacetate (DCFH-DA) as the intracellular ROS indicator, to determine the fluorescence intensity of 2,7-dichlorofluorescin (DCF), which was oxidized from DCFH-DA by ROS. The experiments were repeated for three times using DCFH-DA as control. For comparison, methylene blue was used as positive control. The data were analyzed by GraphPad Prism 6, the drug concentrations are all at 0.5 uM. […] In addition, the intracellular ROS generation efficiency is different from that measured in organic solvent, which may be attributed to the different cellular uptake amount for various compounds and the generation of some other ROS species other than ^1O2 in cells ([…] mechanism).

Data set [14] has as its system HT29 cell line. Conditions: 664 laser and 3 J/cm^2 light dose (2008); read-out: IC50 PDT, Stanley B. Brown reported value; cited from earlier work.
Data set [15] relates to E. coli. Conditions: 10 uM, 30 min incubation, 24 J/cm^2; cited from earlier work.
Another data set relates to bacteria. Conditions: concentration of 10 uM; cited from earlier work.
Data set [16] deals with S. aureus. Conditions: 10 uM, 30 min drug-incubation, 60 J/cm^2; cited from earlier work.

Like-named read-outs stand apart in the source and are kept apart here.

The source of these data is US10189862B2, “Phenothiazine-pyridine compounds and uses thereof” (The Chinese University of Hong Kong, priority 2016, dated 2019).

The term logP denotes the decadic logarithm of the partition coefficient of the neutral form, usually between octanol and water. Usually IC50 stands for the concentration at which inhibition is half-maximal. Regarding `CCCNc1cc2[s+]c3cc(N(CC)CC)ccc3nc2c2ccc(C)nc12.[Cl-]` [Compound 14, 9-(diethylamino)-3-methyl-5-(propylamino)pyrido[3,2-a]phenothiazin-7-ium chloride], the “λmax(nm)in EtOH” value in data set [1] (UV-Vis absorption maximum in EtOH) is on record as 666 nm. In data set [1] (UV-Vis in EtOH), the “Log ε” value is 5.01. In addition, the “λEm (nm)” value in data set [1] (fluorescence emission, excited at 610 nm) is listed as 684 nm. Further, in data set [2], the logP is 1.34. The IC50 was over 10000 nM in data set [3]; 340 nM in the data set on A549 cell line [4]; 39 nM in the data set on HT29 cell line [5]; 370 nM in the data set on MCF7 cell line [6]; 3100 nM in the data set with A549 cell line [7]; 2100 nM with HT29 cell line [8]. The IC50 in the data set on MCF7 cell line [9] came to 1900 nM. Moreover, the results for the “photocytotoxicity vs light dosage” value in the data set with MDA-MB-231 cells, in the data set with S. aureus [12] (0.5 uM drug) and in the data set with E. coli [13] (6 uM drug) were “light dosage dependent photocytotoxicity”, “light dosage dependent” and “light dosage dependent”, respectively. Moreover, the dark toxicity entry with S. aureus [10] and with E. coli [11] was “essentially non-toxic” in each case. For the same compound, the eradication entry with S. aureus [12] (0.5 uM, 30 J/cm^2) was “about 99.9999%”; with E. coli [13] (6 uM, 50 J/cm^2), “about 99.999%”. In addition, the “log 10-reduction” value in the data set with S. aureus [12] (0.5 uM, 30 J/cm^2) is about 6 log 10-reduction; with E. coli [13] (6 uM, 50 J/cm^2), about 5 log 10-reduction.

Turning to `CN(C)c1ccc2nc3ccc(=[N+](C)C)cc-3sc2c1` [MB, methylene blue], the IC50 was 9200 nM in the data set on HT29 cell line [5], over 10000 nM in the data set with HT29 cell line [8] and 88500 nM in the data set with HT29 cell line [14]. In the data set with HT29 cells, the “intracellular ROS generation efficiency” value is “almost no ROS generation”. Also, in the data set with E. coli [15], the “log 10-reduction” value is on record as 0.5 log 10-reduction. The dark toxicity result in the data set on bacteria was “obvious dark toxicity”.

Turning to `CCCCN(CCCC)c1ccc2nc3ccc(=[N+](CCCC)CCCC)cc-3sc2c1.[Br-]` [PPA904], the results for the “log 10-reduction” value in the data set on S. aureus [16] and with E. coli [15] were 4 log 10-reduction and 3 log 10-reduction, respectively. Further, in the data set with bacteria, the dark toxicity result is recorded as “obvious dark toxicity”.
